From ChEMBL document CHEMBL3414474, “Design and synthesis of piperidine derivatives as novel human heat shock protein 70 inhibitors for the treatment of drug-resistant tumors” (Eur J Med Chem, 2015)

What was measured:
[1] = Growth inhibition of human BT474 cells at 5 uM incubated for 72 hrs by ATP detection based luminescent assay; type: functional; conditions: BT-474, 72 h, read-out: GI
[2] = species: Homo sapiens; experiment: Inhibition of HSP70 (unknown origin) at 200 uM pre-incubated for 30 mins followed by ATP addiction and measured after 3 hrs by malachite green reagent based colorimetric assay
[3] = Growth inhibition of human SKBR3 cells at 5 uM incubated for 72 hrs by ATP detection based luminescent assay; type: functional; conditions: SK-BR-3, 72 h, read-out: GI
[4] = system: MDA-MB-361; experiment: Growth inhibition of human MDA-MB-361 cells at 5 uM incubated for 72 hrs by ATP detection based luminescent assay; type: functional; conditions: MDA-MB-361, 72 h, read-out: GI
[5] = system: MDA-MB-453; experiment: Growth inhibition of human MDA-MB-453 cells at 5 uM incubated for 72 hrs by ATP detection based luminescent assay; type: functional; conditions: MDA-MB-453, 72 h, read-out: GI
[6] = Growth inhibition of human BT/LapR1.0 cells at 5 uM incubated for 72 hrs by ATP detection based luminescent assay; type: functional; conditions: read-out: GI
[7] = Growth inhibition of human SK/LapR1.0 cells at 5 uM incubated for 72 hrs by ATP detection based luminescent assay; type: functional; conditions: read-out: GI

Compound | inhibition of growth at 5 µM [1] | inhibition [2] | inhibition of growth at 5 µM [3] | inhibition of growth at 5 µM [4] | inhibition of growth at 5 µM [5] | inhibition of growth at 5 µM [6] | inhibition of growth at 5 µM [7]
CSc1ncc(CN2CCC(N(C)Cc3ccc(Cl)cc3Cl)CC2)s1 | 70% | 6.21% |  |  |  |  | 
COc1ccc(-c2nc(-c3cc(C(F)(F)F)cc(C(F)(F)F)c3)n(Cc3ccc(C(N)=O)cc3)c2-c2ccc(OC)cc2)cc1 |  | 53.1% |  |  |  |  | 
COc1nccc(N2CCC(N(C)Cc3ccc(C#N)cc3)CC2)n1 | 60.4% |  | 31.7% | 27.7% | 66.2% | 58.1% | 16.6%
CCOc1ncc(CN2CCC(N(C)Cc3ccc(Cl)cc3Cl)CC2)s1 |  | 4.5% |  |  |  |  | 12%
CSc1nccc(N2CCC(N(C)Cc3cccc(F)c3)CC2)n1 | 67.1% |  | 32.6% | 50.4% | 66.2% | 63.9% | 35.2%
COc1nccc(N2CCC(N(C)Cc3cc(Cl)ccc3Cl)CC2)n1 | 27.5% |  | 24.7% | 22% | 50.6% | 22.7% | 11.7%
CN(Cc1ccccc1C#N)C1CCN(Cc2cnc(Cl)s2)CC1 | -4.1% |  | 7.3% | -8.5% | 8.2% | 4% | 4.2%
CCOc1ncc(CN2CCC(N(C)Cc3ccc(C#N)cc3)CC2)s1 |  | 5.49% |  |  |  |  | 6.7%
COc1cc(N2CCC(N(C)Cc3cc(Cl)ccc3Cl)CC2)ncn1 | 5.4% |  | 5.2% | 8.4% | 9.4% | 5.6% | 9.4%
CN(Cc1cccc(F)c1)C1CCN(Cc2cnc(Cl)s2)CC1 | 2.4% |  | 4.2% | 3.2% | 4.4% | 5.7% | 1.3%
COc1cc(N2CCC(N(C)Cc3ccc(F)cc3)CC2)ncn1 | 7.8% |  | 7.6% | 4.9% | 5% | 8.1% | 5.7%
CSc1ncc(CN2CCC(N(C)Cc3c(F)cccc3Cl)CC2)s1 | 49.5% |  | 9.2% | 47.2% | 65.3% | 59.9% | 4.5%
CN(Cc1ccc(C#N)cc1)C1CCN(Cc2cnc(Cl)s2)CC1 |  | 11.3% |  |  |  |  | 7.5%
Fc1ccc(CNC2CCN(Cc3cnc(Cl)s3)CC2)cc1 | 70% |  | 37.8% | 36.3% | 72.4% | 66.3% | 40.4%
COc1nccc(N2CCC(N(C)Cc3ccc(C)cc3)CC2)n1 | 61.5% |  | 19.7% | 30.1% | 68.9% | 58.8% | 13.5%
CSc1ncc(CN2CCC(N(C)Cc3ccc(Cl)c(Cl)c3)CC2)s1 |  | 10.7% |  |  |  |  | 
CSc1nccc(N2CCC(N(C)Cc3ccc(C)cc3)CC2)n1 | 69.2% |  | 38.9% | 55.7% | 66.6% | 65.8% | 42%
CSc1nccc(N2CCC(N(C)Cc3cc(Cl)ccc3Cl)CC2)n1 | 61% |  | 19.3% | 45.7% | 69.3% | 56.9% | 29.4%
